According to patent US20160120888A1, “ANTICANCER DRUG” (KTN BIOTEC, INC., priority 2013, published 2016):

Assays:
Type in all cases: cell-based
[1] = system: human malignant pleural mesothelioma cell lines NCI-H28, NCI-H2052, NCI-H2452, MSTO-211H; test: Cell viability assay (MTT), human malignant pleural mesothelioma cell lines; conditions: 48 hr treatment; for cell death induction (MTT intensity relative to cells free of drug treatment): FIG. 2 / FIG. 3
Protocol: FIG. 2 is a graph showing that diDCP-LA-PI and diDCP-LA-PIe induce cell death of human malignant pleural mesothelioma in a concentration-dependent manner. The cells were treated with a given concentration of diDCP-LA-PI or diDCP-LA-PIe for 48 hr, and subjected to MTT assay.
FIG. 3 is a graph showing that DO-PI and DP-PI induce the same level of cell death of human malignant pleural mesothelioma in a concentration-dependent manner. The cells were treated with a given concentration of DO-PI or DP-PI for 48 hr, and subjected to MTT assay.
NCI-H28, NCI-H2052, NCI-H2452, and MSTO-211H which are cell lines of human malignant pleural mesothelioma were used.
These cells were purchased from American Type Culture Collection (Manassas, Va., USA). The cells were cultured in Roswell Park Memorial Institute (RPMI)-1640 medium added with 0.003% (w/v) L-glutamine.
(§1) In all cell cultures, the cells were incubated in a medium added with 10% (v/v) heat-inactivated bovine serum, penicillin (final concentration, 100 U/ml) and streptomycin (final concentration, 0.1 mg/ml) in a humid environment under 5% CO2 and 95% air at 37° C.
(§2) The cell viability was evaluated by an established method using 3-(4,5-dimethyl-2-thiazolyl)-2,5-diphenyl-2H-tetrazolium bromide (MTT).

[2] = system: Lu-65 human lung cancer cell line; test: Cell viability assay (MTT), Lu-65 lung cancer cells; conditions: human lung cancer cell (Lu65), 48 hr treatment, FIG. 4A
Protocol: (§3) FIG. 4 is a graph showing that diDCP-LA-PI and diDCP-LA-PIe induce cell death of (A) human lung cancer cell (Lu65), (B) gastric cancer cell (MKN28), (C) breast cancer cell (MCF-7) in a concentration-dependent manner. The cells were treated with a given concentration of diDCP-LA-PI or diDCP-LA-PIe for 48 hr, and subjected to MTT assay.
Lu-65 human lung cancer cell line was purchased from Health Science Research Resources Bank (Osaka, Japan), and cultured in RPMI-1640 medium.
as §1, §2

[3] = system: MKN28 human gastric cancer cell line; test: Cell viability assay (MTT), MKN28 gastric cancer cells; conditions: 48 hr treatment, FIG. 4B
Protocol: as §3
MKN28 human gastric cancer cell line was provided by Dr. Tatematsu (Nagoya University, Japan), and cultured in RPMI-1640 medium.
as §1, §2

[4] = system: MCF-7 human breast cancer cell line; test: Cell viability assay (MTT), MCF-7 breast cancer cells; conditions: breast cancer cell (MCF-7), 48 hr treatment, FIG. 4C
Protocol: as §3
MCF-7 human breast cancer cell line was obtained from RIKEN cell bank (Ibaraki, Japan) and cultured in Dulbecco's modified Eagle's medium (DMEM).
as §1, §2

Row | Compound | cell death induction (MTT intensity relative to cells free of drug treatment) [1] | effectiveness of cell death induction compared with diDCP-LA-PI ([1]; human malignant pleural mesothelioma cells, FIG. 2) | cell death induction (MTT intensity relative to cells free of drug treatment) [2] | effectiveness of cell death induction compared with diDCP-LA-PI [2] | cell death induction (MTT intensity relative to cells free of drug treatment) [3] | effectiveness of cell death induction compared with diDCP-LA-PI [3] | cell death induction (MTT intensity relative to cells free of drug treatment) [4] | effectiveness of cell death induction compared with diDCP-LA-PI [4]
1 | CCCCCCCCCCCCCCCC(=O)OC[C@H](COP(=O)(O)O[C@@H]1[C@H](O)[C@H](O)[C@@H](O)[C@H](O)[C@H]1O)OC(=O)CCCCCCCCCCCCCCC [DP-PI, 1,2-dipalmitoyl-sn-glycerol-3-phospho-(1′-myo-inositol)] | induce the same level of cell death of human malignant pleural mesothelioma cells in a concentration dependent manner | – | – | – | – | – | – | –
2 | 1,2-O-bis-[8-{2-(2-pentyl-cyclopropylmethyl)-cyclopropyl}-octanoyl]-sn-glycerol-3-phosphatidyl-L-1-inositol [diDCP-LA-PIe] | induce cell death of human malignant pleural mesothelioma cells in a concentration dependent manner | more effective | induce cell death of human lung cancer, gastric cancer and breast cancer in a concentration dependent manner | more effective | induce cell death of human lung cancer, gastric cancer and breast cancer in a concentration dependent manner | more effective | induce cell death of human lung cancer, gastric cancer and breast cancer in a concentration dependent manner | more effective
3 | 1,2-O-bis-[8-{2-(2-pentyl-cyclopropylmethyl)-cyclopropyl}-octanoyl]-sn-glycerol-3-phosphatidyl-D-inositol [diDCP-LA-PI] | induce cell death of human malignant pleural mesothelioma cells in a concentration dependent manner | – | induce cell death of human lung cancer, gastric cancer and breast cancer in a concentration dependent manner | – | induce cell death of human lung cancer, gastric cancer and breast cancer in a concentration dependent manner | – | induce cell death of human lung cancer, gastric cancer and breast cancer in a concentration dependent manner | –
4 | CCCCCCCC/C=C\CCCCCCCC(=O)OC[C@H](COP(=O)(O)OC1C(O)C(O)C(O)[C@@H](O)C1O)OC(=O)CCCCCCC/C=C\CCCCCCCC (some centres unmarked) [DO-PI, 1,2-dioleoyl-sn-glycerol-3-phospho-(1′-myo-inositol)] | induce the same level of cell death of human malignant pleural mesothelioma cells in a concentration dependent manner | – | – | – | – | – | – | –
